Source: US6573260B1, “Cycloalkyl-substituted aminomethylpyrrolidine derivatives” (Daiichi Pharmaceutical Co., Ltd., priority 1998, dated 2003)
In brackets after ≈: the same amount, converted by molar mass. Read-outs that look alike come from different tables or passages of the source.

Key:
Assay in all cases: antibacterial activity (MIC), standard method of the Japan Society of Chemotherapy
Assay type in all cases: cell-based
E. coli, NIHJ = system: E. coli, NIHJ
Description: (§1) The antibacterial activity of each compound of the present invention was measured in accordance with the standard method specified by the Japan Society of Chemotherapy, with the results shown in the following Table 2 as MIC values (μg/ml). In this connection, MIC values of levofloxacin (LVFX) and ciprofloxacin (CPEX) are also shown for the sake of comparison with the MIC values of the compounds of the present invention.

E. faecalis, ATCC 19433 = system: E. faecalis, ATCC 19433
Description: as §1

K. pneumoniae TYPE 1 = system: K. pneumoniae TYPE 1
Description: as §1

PS. aeruginosa, 32121 = system: PS. aeruginosa, 32121
Description: as §1

Pr. vulgaris, 08601 = system: Pr. vulgaris, 08601
Description: as §1

Ps. aeruginosa, 32104 = system: Ps. aeruginosa, 32104
Description: as §1

S. aureus, 870307 = system: S. aureus, 870307
Description: as §1

S. aureus, FDA 209P = system: S. aureus, FDA 209P
Description: as §1

S. epidermidis, 56500 = system: S. epidermidis, 56500
Description: as §1

S. flexneri, 2A 5503 = system: S. flexneri, 2A 5503
Description: as §1

Ser. marcescens, 10100 = system: Ser. marcescens, 10100
Description: as §1

Str. pneumoniae, J24 = system: Str. pneumoniae, J24
Description: as §1

Str. pyogenes, G-36 = system: Str. pyogenes, G-36
Description: as §1

X. maltophilia, IID 1275 = system: X. maltophilia, IID 1275
Description: as §1

[1] = Escherichia coli, read-out: MIC
[2] = Enterococcus faecalis, ATCC19433, read-out: MIC
[3] = Klebsiella pneumoniae, TYPE1, read-out: MIC
[4] = Pseudomonas aeruginosa, read-out: MIC
[5] = Proteus vulgaris, read-out: MIC
[6] = Staphylococcus aureus, read-out: MIC
[7] = Staphylococcus aureus, FDA209P, read-out: MIC
[8] = Staphylococcus epidermidis, read-out: MIC
[9] = Shigella flexneri, 2A5503, read-out: MIC
[10] = Serratia marcescens, read-out: MIC
[11] = Streptococcus pneumoniae, read-out: MIC
[12] = Streptococcus pyogenes, G36, read-out: MIC
[13] = Stenotrophomonas maltophilia, IID1275, read-out: MIC

| Compound | MIC (E. coli, NIHJ; [1]) | MIC (E. faecalis, ATCC 19433; [2]) | MIC (K. pneumoniae TYPE 1; [3]) | MIC (PS. aeruginosa, 32121; [4]) | MIC (Pr. vulgaris, 08601; [5]) | MIC (Ps. aeruginosa, 32104; [4]) | MIC (E. coli, NIHJ) | MIC (E. faecalis, ATCC 19433) | MIC (K. pneumoniae TYPE 1) | MIC (PS. aeruginosa, 32121) | MIC (Pr. vulgaris, 08601) | MIC (Ps. aeruginosa, 32104) | MIC (S. aureus, 870307) | MIC (S. aureus, FDA 209P) | MIC (S. epidermidis, 56500) | MIC (S. flexneri, 2A 5503) | MIC (Ser. marcescens, 10100) | MIC (Str. pneumoniae, J24) | MIC (Str. pyogenes, G-36) | MIC (X. maltophilia, IID 1275) | other results |
| --- | --- | --- | --- | --- | --- | --- | --- | --- | --- | --- | --- | --- | --- | --- | --- | --- | --- | --- | --- | --- | --- |
| C[C@H]1COc2c(N3CCN(C)CC3)c(F)cc3c(=O)c(C(=O)O)cn1c23 [LVFX, levofloxacin, reference compound] | 0.013 µg/mL (≈ 0.036 µM) | 0.78 µg/mL (≈ 2.16 µM) | 0.1 µg/mL (≈ 0.277 µM) | 0.1 µg/mL (≈ 0.277 µM) | 0.13 µg/mL (≈ 0.36 µM) | 0.2 µg/mL (≈ 0.553 µM) |  |  |  |  |  |  |  |  |  |  |  |  |  |  | MIC (S. aureus, 870307; [6]): > 6.25 µg/mL; MIC (S. aureus, FDA 209P; [7]): 0.2 µg/mL (≈ 0.553 µM); MIC (S. epidermidis, 56500; [8]): 0.39 µg/mL (≈ 1.08 µM); MIC (S. flexneri, 2A 5503; [9]): 0.025 µg/mL (≈ 0.0692 µM); MIC (Ser. marcescens, 10100; [10]): 0.1 µg/mL (≈ 0.277 µM); MIC (Str. pneumoniae, J24; [11]): 0.78 µg/mL (≈ 2.16 µM); MIC (Str. pyogenes, G-36; [12]): 0.2 µg/mL (≈ 0.553 µM); MIC (X. maltophilia, IID 1275; [13]): 0.39 µg/mL (≈ 1.08 µM) |
| COc1c(N2CCC(C(N)C3CC3)C2)c(F)cc2c(=O)c(C(=O)O)cn(C3CC3F)c12 (stereo not drawn) [compound 6] |  |  |  |  |  |  | ≦0.003 μg/ml | 0.025 µg/mL (≈ 0.0577 µM) | 0.05 µg/mL (≈ 0.115 µM) | 0.05 µg/mL (≈ 0.115 µM) | 0.013 µg/mL (≈ 0.03 µM) | 0.1 µg/mL (≈ 0.231 µM) | 0.1 µg/mL (≈ 0.231 µM) | ≦0.003 μg/ml | 0.006 µg/mL (≈ 0.0138 µM) | 0.006 µg/mL (≈ 0.0138 µM) | 0.1 µg/mL (≈ 0.231 µM) | ≦0.003 μg/ml | ≦0.003 μg/ml | 0.2 µg/mL (≈ 0.461 µM) |  |
| COc1c(N2CCC(C(N)C3CC3)C2)ccc2c(=O)c(C(=O)O)cn(C3CC3)c12 (stereo not drawn) [compound 8] |  |  |  |  |  |  | 0.006 µg/mL (≈ 0.0151 µM) | 0.05 µg/mL (≈ 0.126 µM) | 0.1 µg/mL (≈ 0.252 µM) | 0.2 µg/mL (≈ 0.503 µM) | 0.05 µg/mL (≈ 0.126 µM) | 0.39 µg/mL (≈ 0.981 µM) | 0.2 µg/mL (≈ 0.503 µM) | 0.006 µg/mL (≈ 0.0151 µM) | 0.025 µg/mL (≈ 0.0629 µM) | 0.1 µg/mL (≈ 0.252 µM) | 0.2 µg/mL (≈ 0.503 µM) | 0.006 µg/mL (≈ 0.0151 µM) | 0.013 µg/mL (≈ 0.0327 µM) | 0.2 µg/mL (≈ 0.503 µM) |  |
| Cc1c(N2CCC(C(N)C3CC3)C2)c(F)c(N)c2c(=O)c(C(=O)O)cn(C3CC3F)c12 (stereo not drawn) [compound 7] |  |  |  |  |  |  | ≦0.003 μg/ml | 0.013 µg/mL (≈ 0.0301 µM) | 0.025 µg/mL (≈ 0.0578 µM) | 0.025 µg/mL (≈ 0.0578 µM) | 0.013 µg/mL (≈ 0.0301 µM) | 0.05 µg/mL (≈ 0.116 µM) | 0.025 µg/mL (≈ 0.0578 µM) | ≦0.003 μg/ml | ≦0.003 μg/ml | ≦0.003 μg/ml | 0.05 µg/mL (≈ 0.116 µM) | ≦0.003 μg/ml | ≦0.003 μg/ml | 0.05 µg/mL (≈ 0.116 µM) |  |
| O=C(O)c1cn(C2CC2)c2cc(N3CCNCC3)c(F)cc2c1=O [CPFX, ciprofloxacin, reference compound] | ≤ 0.003 µg/mL | 0.78 µg/mL (≈ 2.35 µM) | 0.025 µg/mL (≈ 0.0754 µM) | 0.025 µg/mL (≈ 0.0754 µM) | ≤ 0.003 µg/mL | 0.05 µg/mL (≈ 0.151 µM) |  |  |  |  |  |  |  |  |  |  |  |  |  |  | MIC (S. aureus, 870307; [6]): 3.13 µg/mL (≈ 9.45 µM); MIC (S. aureus, FDA 209P; [7]): 0.1 µg/mL (≈ 0.302 µM); MIC (S. epidermidis, 56500; [8]): 0.2 µg/mL (≈ 0.604 µM); MIC (S. flexneri, 2A 5503; [9]): 0.006 µg/mL (≈ 0.0181 µM); MIC (Ser. marcescens, 10100; [10]): 0.025 µg/mL (≈ 0.0754 µM); MIC (Str. pneumoniae, J24; [11]): 0.1 µg/mL (≈ 0.302 µM); MIC (Str. pyogenes, G-36; [12]): 1.56 µg/mL (≈ 4.71 µM); MIC (X. maltophilia, IID 1275; [13]): 0.78 µg/mL (≈ 2.35 µM) |
| Nc1c(F)c(N2CCC(C(N)C3CC3)C2)c(F)c2c1c(=O)c(C(=O)O)cn2C1CC1F (stereo not drawn) [compound 5] |  |  |  |  |  |  | ≦0.003 μg/ml | 0.013 µg/mL (≈ 0.0298 µM) | 0.013 µg/mL (≈ 0.0298 µM) | 0.025 µg/mL (≈ 0.0573 µM) | 0.013 µg/mL (≈ 0.0298 µM) | 0.05 µg/mL (≈ 0.115 µM) | 0.025 µg/mL (≈ 0.0573 µM) | ≦0.003 μg/ml | ≦0.003 μg/ml | ≦0.003 μg/ml | 0.025 µg/mL (≈ 0.0573 µM) | ≦0.003 μg/ml | ≦0.003 μg/ml | 0.05 µg/mL (≈ 0.115 µM) |  |
